From ChEMBL document CHEMBL3137667, “[Drug-induced liver injury; fourteenth updated edition of the bibliographic database of liver injuries and related drugs]” (Gastroenterol Clin Biol, 2004)

Assays:
[1] = Highest frequency of moderate liver toxicity observed during clinical trials, expressed as a percentage. [column '% BIOL' in source]; conditions: human
[2] = Highest frequency of acute liver toxicity observed during clinical trials, expressed as a percentage. [column '% AIGUE' in source]; conditions: human
[3] = Presence of at least one case with successful reintroduction. [column 'REINT' in source]; conditions: human
[4] = Times to onset, minimal and maximal, observed in the indexed observations. [column 'DELAI' in source]; conditions: human
[5] = Proposed mechanism(s) of liver damage. [column 'MEC' in source]; conditions: human
[6] = human, serum
[7] = human, serum; remark: listed apart in the source
[8] = human
[9] = human; remark: listed apart in the source
[10] = human; remark: listed apart in the source
[11] = human, serum, 4383 h
[12] = human; remark: listed apart in the source
[13] = human; remark: listed apart in the source
[14] = human; remark: listed apart in the source
[15] = human; remark: listed apart in the source
[16] = human; remark: listed apart in the source
[17] = human; remark: listed apart in the source
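Wherever Hepatotoxicity (association with vascular disease) is given: count of indexed literature references reporting vascular liver injury in humans, e.g. peliosis hepatitis, hepatic veno-occlusive disease or Budd-Chiari syndrome.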
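Wherever Hepatotoxicity (benign tumour) is given: value is a count of indexed literature references citing a benign tumour confirmed by histopathology.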
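Wherever Hepatotoxicity (choleostasis) is given: human cholestatic liver injury, shown by histopathology or by peak ALT or AST elevation over alkaline phosphatase ratio below 2, value counts indexed literature reports.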
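Wherever Hepatotoxicity (chronic liver disease) is given: chronic liver injury confirmed by histopathology or persistently raised serum aminotransferase activity beyond 6 months, value given as the count of indexed literature references.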
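Wherever Hepatotoxicity (cirrhosis) is given: value is a count of indexed literature references reporting cirrhosis confirmed by histopathology.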
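Wherever Hepatotoxicity (cytolytic) is given: human cytolytic liver injury, shown by histopathology or by a ratio above 5 of peak ALT or AST elevation to alkaline phosphatase elevation, value counts indexed references.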
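Wherever Hepatotoxicity (granulomatous hepatitis) is given: value is a count of indexed literature references reporting granulomatous liver disease confirmed by histopathology.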
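Wherever Hepatotoxicity (malignant tumour) is given: malignant tumour confirmed by histopathology, value gives the count of indexed literature references reporting it.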
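Wherever Hepatotoxicity (severe hepatitis) is given: human clinical data: severe hepatitis, meaning potentially life-threatening liver failure or clinically observed cases, the value counts how many indexed literature references report it.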
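Wherever Hepatotoxicity (steatosis) is given: steatosis confirmed by histopathology, value is the count of indexed references.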

Structure (SMILES) | Hepatotoxicity (moderate) [1] | Hepatotoxicity (acute) [2] | Hepatotoxicity (successful reintroduction) [3] | Hepatotoxicity (time to onset) [4] | Hepatotoxicity (mechanism) [5] | Hepatotoxicity (moderate) [6] | Hepatotoxicity (acute) [7] | Hepatotoxicity (cytolytic) [8] | Hepatotoxicity (choleostasis) [9] | Hepatotoxicity (severe hepatitis) [10] | Hepatotoxicity (chronic liver disease) [11] | Hepatotoxicity (cirrhosis) [12] | Hepatotoxicity (granulomatous hepatitis) [13] | Hepatotoxicity (association with vascular disease) [14] | Hepatotoxicity (steatosis) [15] | Hepatotoxicity (malignant tumour) [16] | Hepatotoxicity (benign tumour) [17] | other results
CC[C@@H](CO)NCCN[C@@H](CC)CO [ETHAMBUTOL] | 0% | 0% | yes | 1.5 months - 2 months | Allergic | 1 | 6 | 1 | 1 | 0 | 0 | 0 | 0 | 0 | 0 | 0 | 0 | –
O=C1c2ccccc2C(=O)C1c1ccccc1 [PHENINDIONE] | 0% | 0.2% | yes | 1 week - 2 months | Allergic | 1 | 13 | 3 | 11 | 1 | 0 | 0 | 1 | 0 | 0 | 0 | 0 | –
CC(C(=O)O)c1ccc(N2CC=CC2)c(Cl)c1 (stereo unspecified) [PIRPROFEN] | 2.8% | 0.3% | yes | 1 week - 1 year | Toxic Metabolite | 5 | 9 | 9 | 2 | 8 | 1 | 1 | 0 | 0 | 2 | 0 | 0 | –
O=C(O)COc1nn(Cc2ccccc2)c2ccccc12 [BENDAZAC] | – | – | yes | 3 weeks - 3.5 years | – | 0 | 6 | – | – | – | 0 | 0 | – | 0 | 0 | 0 | 0 | Hepatotoxicity (moderate) ([1]; Liver): 0%; Hepatotoxicity (acute) ([2]; Liver): 0%; Hepatotoxicity (mechanism) ([5]; Liver): Allergic; Hepatotoxicity (cytolytic) ([8]; Liver): 3; Hepatotoxicity (choleostasis) ([9]; Liver): 2; Hepatotoxicity (severe hepatitis) ([10]; Liver): 0; Hepatotoxicity (granulomatous hepatitis) ([13]; Liver): 0
CCCSc1ccc2nc(NC(=O)OC)[nH]c2c1 [ALBENDAZOLE] | – | – | yes | 1 week - 6 months | Reactive metabolite | 25 | 8 | 3 | 2 | – | 0 | 0 | 0 | 0 | 0 | 0 | 0 | Hepatotoxicity (moderate) ([1]; Liver): 100%; Hepatotoxicity (acute) ([2]; Liver): 5%; Hepatotoxicity (severe hepatitis) ([10]; Liver): 0
CN1C(=O)CCS(=O)(=O)C1c1ccc(Cl)cc1 (stereo unspecified) [CHLORMEZANONE] | 0% | 0% | yes | 1 day - 4 weeks | Allergic, Dose-dependant | 0 | 8 | 1 | 7 | 2 | 0 | 0 | 0 | 0 | 0 | 0 | 0 | –
CC(C)C[C@H]1C(=O)N2CCC[C@H]2[C@]2(O)O[C@](NC(=O)[C@@H]3C=C4c5cccc6[nH]c(Br)c(c56)C[C@H]4N(C)C3)(C(C)C)C(=O)N12 [BROMOCRIPTINE] | 22% | 0% | yes | 4 days - 2 months | Dose-dependant | 6 | 2 | 2 | 0 | 0 | 0 | 0 | 0 | 0 | 0 | 0 | 0 | –
CCc1nc(N)nc(N)c1-c1ccc(Cl)cc1.COc1ncnc(NS(=O)(=O)c2ccc(N)cc2)c1OC | 22.5% | 23.5% | yes | 1 day - 3 months | Allergic | 11 | 14 | 5 | 4 | 3 | 0 | 0 | 2 | 0 | 0 | 0 | 0 | –
CC(C)N(CCC(C(N)=O)(c1ccccc1)c1ccccn1)C(C)C (stereo unspecified) [DISOPYRAMIDE] | 0.3% | 0.1% | yes | 2 weeks - 1 year | Allergic | 1 | 14 | 6 | 10 | 0 | 1 | 0 | 0 | 0 | 0 | 0 | 0 | –
COC(=O)[C@H](c1ccccc1Cl)N1CCc2sccc2C1 [CLOPIDOGREL] | – | – | yes | 4 days - 5.5 months | – | 2 | 5 | – | – | – | 0 | 0 | – | 0 | 0 | 0 | 0 | Hepatotoxicity (moderate) ([1]; Liver): 3%; Hepatotoxicity (acute) ([2]; Liver): 0%; Hepatotoxicity (mechanism) ([5]; Liver): Allergic; Hepatotoxicity (cytolytic) ([8]; Liver): 4; Hepatotoxicity (choleostasis) ([9]; Liver): 1; Hepatotoxicity (severe hepatitis) ([10]; Liver): 0; Hepatotoxicity (granulomatous hepatitis) ([13]; Liver): 0
CC(=O)Oc1cc(C(C)C)c(OCCN(C)C)cc1C [MOXISYLYTE] | 0% | 0% | yes | 8 days - 3 months | Allergic, Dose-dependant | 1 | 5 | 5 | 1 | 0 | 0 | 0 | 0 | 0 | 0 | 0 | 0 | –
Cc1nc2ccc(CN(C)c3ccc(C(=O)N[C@@H](CCC(=O)O)C(=O)O)s3)cc2c(=O)[nH]1 [RALTITREXED] | 100% | 21.9% | yes | 2 weeks - 17 weeks | Dose-dependant | 20 | 8 | 7 | 1 | 3 | 0 | 1 | 0 | 0 | 1 | 0 | 0 | –
O=C(CCCCC(=O)Nc1c(I)cc(I)c(C(=O)O)c1I)Nc1c(I)cc(I)c(C(=O)O)c1I [IODIPAMIDE] | 18.3% | 0% | yes | 3 days - 1 week | Dose-dependant | 2 | 6 | 6 | 0 | 0 | 0 | 0 | 0 | 0 | 1 | 0 | 0 | –
